Test results taken from US12404283B2, “c-MYC mRNA translation modulators and uses thereof in the treatment of cancer” (Anima Biotech Inc., priority 2022, dated 2025).
Numbered stars: 1 amine (or outer) side, 2 acyl side, 3 side chain; on linkers, the order of the positions; unused ones are H or OH. Bridge positions count the residues as written; N and C are the ends. Square brackets hold non-standard residues; d marks the D form. Peptide text beside a SMILES is read from it. I, II: the chains in the order shown. Actinocin(9to1) = Cc1c2oc3c(C)ccc(C(=O)[*:1])c3nc-2c(C(=O)[*:2])c(N)c1=O; NMeV = CN[C@H](C(=O)O)C(C)C; Sar = CNCC(=O)O

Tests used:
[1] = tested on: c-Myc mRNA; experiment: c-Myc mRNA level and transcription sites in A549 cells; assay type: cell-based, human
Text: (§1) A549 cells were exposed to vehicle, general transcription inhibitor actinomycin D or anti-c-Myc compound.
(§2) In gray, cell nuclei stained with DAPI; in red, c-Myc protein; in purple, c-Myc mRNA; in yellow, c-Myc transcription sites.

[2] = tested on: c-Myc mRNA; experiment: Fluorescent in situ hybridization (FISH) assay for c-Myc mRNA; assay type: cell-based, human; conditions: A549 cells, 4 hours, FIG. 3 lower panel
Experimental: A549 cells were incubated with compounds for 24 hours (FIG. 3, upper panel) and c-Myc protein detected by immunofluorescence. In parallel, A549 cells were incubated with compounds for 4 hours and c-Myc mRNA was visualized by micrscopy using c-Myc mRNA specific fluorescent-tagged probes (FIG. 3, lower panel).
A549 cells were grown in 384-wells plates (Perkin Elmer, Cat. 6057300) for 48 hours, treated with compounds for 4 hours and then fixed for 20 min in 4% paraformaldehyde. Next day, permeabilization was done for 90 min at 4° C., using 70% ethanol. Then, the cells were incubated for 10 min with 10% formamide in 10% saline-sodium citrate. Fluorescently labeled custome DNA probes that target c-Myc (Cy3, BioSearch Technologies, Cat. SMF-1063-5) and GAPDH (Cy5, BioSearch Technologies, Cat. SMF-2019-1) mRNAs were hybridized overnight at 37° C. in a dark chamber in 10% formamide. The next day, cells were washed twice with 10% formamide for 30 min. […]
Following RNA FISH experiments, images of cells were taken with Operetta (Perkin Elmer, USA), a wide-field fluorescence microscope at ×63 magnification. […] In Columbus, cells were identified by their nucleus, using the “Find Nuceli” module, cytoplasm was detected based on the FISH-channel, and single mRNAs in the cytoplasm and transcription sites in the nucleus were detected using “Find Spots” module. […]

[3] = tested on: c-Myc; experiment: c-Myc immunofluorescence assay; assay type: cell-based, human; conditions: A549 cells; for Myc Efficacy (−LogEC50): 24 hours treatment, anti-c-Myc immunofluorescence
Outline: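 A549 cells grown 48 h, exposed 24 h to rising compound concentrations, then fixed, permeabilised and stained for c-Myc plus DAPI. Nuclear-segmented c-Myc fluorescence quantified by high-content imaging at 20×; EC50 from logistic dose–response fits.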

[4] = tested on: c-Myc protein; experiment: c-Myc protein level in A549 cells; assay type: cell-based, human
Text: as §1, §2

[5] = tested on: A549 xenografts; experiment: A549 xenograft model in nude mice; assay type: in vivo, NMRI nude female mice; conditions: 3 mg/kg i.p. twice a week for 49 days, FIG. 5
Experimental: NMRI nude female mice of 6-8 weeks of age were acclimated after shipping for >4 days. A549 cells, 5×10^6 in 100 ul Matrigel:PBS (50:50), were subcutaneously injected into flanks of mice. When the tumor size reached 80 to 200 mm^3, mice were grouped with similar average tumor size in each group, 10 animals per group. Compounds were dissolved in 10% DMSO, 10% Solutol, 80% water. Compounds were given i.p. for 49 days at 3 mg/kg twice a week. Caliper measurement of tumor size was done twice a week.
Error bars represent median±SEM, n=10 mice at each time point and analyzed by one-tailed T-TEST in Prism for *p<0.05.

[6] = tested on: A549 xenografts; experiment: A549 xenograft tumor growth in nude mice; assay type: in vivo; conditions: NMRI female nude mice, 3 mg/kg twice a week for 49 days, p<0.05
Experimental: Relative tumor volumes of A549 xenografts in NMRI female nude mice after treatment with compound 3 mg/kg twice a week for 49 days. Error bars represent median±SEM, n=10 mice at each time point and analyzed by one-tailed T-TEST in Prism for *p<0.05

[7] = tested on: A549 cells; experiment: Metabolic labeling (L-Azidohomoalanine) of global protein synthesis in A549 cells; assay type: cell-based, human
Text: FIG. 2 depicts selective regulation of c-Myc translation. […] In gray, cell nuclei stained with DAPI; in yellow, L-Azidohomoalanine (AHA) metabolic labeling.

[8] = tested on: global translation; experiment: Metabolic labeling assay (global translation, modified methionine incorporation); assay type: cell-based, human; conditions: A549 cells, 4 hour pulse, FIG. 2
Experimental: A549 cells were incubated with active compounds and metabolically labelled with fluorescent methionine for a 4 hour pulse (click-chemistry modified methionine). Cells were fixed and newly synthesized proteins detected by using click-chemistry with a fluorescent detector (FIG. 2).
A549 cells were seeded at 3,200 cells per well in complete culture medium. Plates were incubated at 37° C., 5% CO2 overnight. After 48 hours of incubation, the growth medium was aspirated, and cells were washed three times with HBSS. Metabolic labeling medium DMEM (-Cys-Met), containing 10% dialyzed FBS, 10% pencillin-streptomycin and 1% L-glutamine was added to the cells for 30 min. Then medium was replaced by metabolic labeling medium containing 25 μM L-Azidohomoalanine (AHA, ThermoFisher) and tested compounds at a final concentration of 30 μM, and cells were incubated for 4 hours at 37° C., 5% CO2. Cells were washed by HBSS at 37° C. for 15 min before fixing with 4% paraformaldehyde. Cells were washed twice with 3% BSA in PBS before permeabilization with 0.5% Triton X-100 in PBS for 20 min. The AHA staining with Alexa Fluor™ 555 alkyne was performed according to the manufacturer protocol. Images were captured with Operetta microscope (Perkin Elmer) using ×20 high NA objective lens.

Compound: Cc1c2oc3c(C)ccc(C(=O)N[C@@H]4C(=O)N[C@H](C(C)C)C(=O)N5CCC[C@H]5C(=O)N(C)CC(=O)N(C)[C@@H](C(C)C)C(=O)O[C@@H]4C)c3nc-2c(C(=O)N[C@@H]2C(=O)N[C@H](C(C)C)C(=O)N3CCC[C@H]3C(=O)N(C)CC(=O)N(C)[C@@H](C(C)C)C(=O)O[C@@H]2C)c(N)c1=O [actinomycin D] (I: T[dV]P[Sar][NMeV] / II: T[dV]P[Sar][NMeV]; ester I:1-I:C, II:1-II:C; linker I:N-II:N via Actinocin(9to1))
- c-Myc mRNA level [1]: complete reduction
- c-Myc transcription sites [1]: complete reduction
- c-Myc mRNA in the cytoplasm [2]: mRNA accumulation in the cytoplasm
- c-Myc transcription site (spots inside the nucleus) [2]: inhibited transcription site
- c-Myc protein detected by immunofluorescence ([3]; 24 hours, FIG. 3 upper panel): reduced c-Myc protein
- c-Myc protein level [4]: significant decrease

Compound: NC1(c2ccc(-c3cn4c(n3)sc3cc(C(=O)NCCCN5CCCCC5)ccc34)cc2)CC1 [compound 332, 2-(4-(1-aminocyclopropyl)phenyl)-N-(3-(piperidin-1-yl)propyl)benzo[d]imidazo [2,1-b]thiazole-7-carboxamide]
- c-Myc-dependent tumor growth (relative tumor volume) [5]: inhibited c-Myc-dependent tumor growth in-vivo
- Myc Efficacy (−LogEC50) [3]: +++ (+++ ≥6)
- c-Myc-dependent tumor growth (relative tumor volumes) [6]: inhibited c-Myc-dependent tumor growth in-vivo

Compound: O=C(NC1COCOC1)c1ccc2c(c1)sc1nc(-c3ccc(C4CCCN4)cc3F)cn12 (stereo not drawn) [compound 545, N-(1,3-dioxan-5-yl)-2-(2-fluoro-4-(pyrrolidin-2-yl)phenyl)benzo[d]imidazo[2,1-b]thiazole-7-carboxamide]
- Myc Efficacy (−LogEC50) [3]: +++ (+++ ≥6)

Compound: CN1CCC(NC(=O)c2ccc3c(c2)sc2nc(-c4ccc(C5CCNCC5O)cc4F)cn23)CC1 (stereo not drawn) [compound 546, 2-(2-fluoro-4-(3-hydroxypiperidin-4-yl)phenyl)-N-(1-methylpiperidin-4-yl)benzo[d]imidazo[2,1-b]thiazole-7-carboxamide]
- Myc Efficacy (−LogEC50) [3]: +++ (+++ ≥6)

Compound: O=C(NCCCN1CCC(F)CC1)c1ccc2c(c1)sc1nc(-c3cc4c(cc3F)CCN4)cn12 [compound 601, 2-(5-fluoroindolin-6-yl)-N-(3-(4-fluoropiperidin-1-yl)propyl)benzo[d]imidazo[2,1-b]thiazole-7-carboxamide]
- Myc Efficacy (−LogEC50) [3]: +++ (+++ ≥6)

Compound: C[C@@H]1C[C@@H]([C@H](O)CC2CC(=O)NC(=O)C2)C(=O)[C@@H](C)C1 [cycloheximide]
- global protein synthesis (AHA metabolic labeling) [7]: total inhibition
- incorporation of modified methionine (global translation) [8]: completely reduced incorporation of modified methionine

Compound: N-(2- (dimethylamino)propyl)-2- (4- (methylcarbamoyl)phenyl) benzo[d]imidazo[2,1-b] thiazole-7-carboxamide [compound 239]
- Myc Efficacy (−LogEC50) [3]: + (+ >3 and <5)
